Biological target: Protein cereblon/DNA damage-binding protein 1 (Homo sapiens, UniProt Q96SW2)
Test: Fluorescence Polarization (FP) Assay for Screening Compound Ligand Binders of CRBN-DDM: Measuring compound ligand binding to CRBN-DDB1 was carried out using an established sensitive and quantitative in vitro fluorescence polarization (FP) based binding assay. (See, I. J. Enyedy et al, J. Med. Chem., 44: 3134324, 2001). Compounds were dispensed from serially diluted DMSO stock into black 384-well compatible fluorescence polarization plates using an Echo acoustic dispenser. Compound binding to CRBN-DDB1 was measured by displacement of either a (−)-Thalidomide-Alexa Fluor® or Pornalidomide-fluorescein conjugated probe dye. A 20 μL mixture containing 400 nM CRBN-DDB1 and 5 nM probe dye in 50 mM Hepes, pH 7.4, 200 mM NaCl, 1% DMSO and 0.05% pluronic acid-127 acid was added to wells containing compound and incubated at room temperature for 60 min. Matching control wells excluding CRBN-DDB1 were used to correct for background fluorescence. Plates were read on an Envision plate reader with appropriate FP filter sets. […]
Assay type: protein assay

Sequence of Protein cereblon/DNA damage-binding protein 1 (Q96SW2 whole entry): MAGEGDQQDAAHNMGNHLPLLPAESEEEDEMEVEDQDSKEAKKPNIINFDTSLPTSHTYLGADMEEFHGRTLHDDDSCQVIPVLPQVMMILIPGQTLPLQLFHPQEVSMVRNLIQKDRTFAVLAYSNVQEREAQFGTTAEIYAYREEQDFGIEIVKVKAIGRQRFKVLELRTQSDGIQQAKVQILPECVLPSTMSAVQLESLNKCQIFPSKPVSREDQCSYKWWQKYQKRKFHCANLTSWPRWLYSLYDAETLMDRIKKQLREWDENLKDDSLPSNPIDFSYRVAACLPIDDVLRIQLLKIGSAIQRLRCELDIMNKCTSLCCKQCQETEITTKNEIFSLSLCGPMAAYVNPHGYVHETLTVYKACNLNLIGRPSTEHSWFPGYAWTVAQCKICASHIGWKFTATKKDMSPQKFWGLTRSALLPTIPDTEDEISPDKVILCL
Sequence of Protein cereblon/DNA damage-binding protein 1 (Q16531 whole entry, further chain): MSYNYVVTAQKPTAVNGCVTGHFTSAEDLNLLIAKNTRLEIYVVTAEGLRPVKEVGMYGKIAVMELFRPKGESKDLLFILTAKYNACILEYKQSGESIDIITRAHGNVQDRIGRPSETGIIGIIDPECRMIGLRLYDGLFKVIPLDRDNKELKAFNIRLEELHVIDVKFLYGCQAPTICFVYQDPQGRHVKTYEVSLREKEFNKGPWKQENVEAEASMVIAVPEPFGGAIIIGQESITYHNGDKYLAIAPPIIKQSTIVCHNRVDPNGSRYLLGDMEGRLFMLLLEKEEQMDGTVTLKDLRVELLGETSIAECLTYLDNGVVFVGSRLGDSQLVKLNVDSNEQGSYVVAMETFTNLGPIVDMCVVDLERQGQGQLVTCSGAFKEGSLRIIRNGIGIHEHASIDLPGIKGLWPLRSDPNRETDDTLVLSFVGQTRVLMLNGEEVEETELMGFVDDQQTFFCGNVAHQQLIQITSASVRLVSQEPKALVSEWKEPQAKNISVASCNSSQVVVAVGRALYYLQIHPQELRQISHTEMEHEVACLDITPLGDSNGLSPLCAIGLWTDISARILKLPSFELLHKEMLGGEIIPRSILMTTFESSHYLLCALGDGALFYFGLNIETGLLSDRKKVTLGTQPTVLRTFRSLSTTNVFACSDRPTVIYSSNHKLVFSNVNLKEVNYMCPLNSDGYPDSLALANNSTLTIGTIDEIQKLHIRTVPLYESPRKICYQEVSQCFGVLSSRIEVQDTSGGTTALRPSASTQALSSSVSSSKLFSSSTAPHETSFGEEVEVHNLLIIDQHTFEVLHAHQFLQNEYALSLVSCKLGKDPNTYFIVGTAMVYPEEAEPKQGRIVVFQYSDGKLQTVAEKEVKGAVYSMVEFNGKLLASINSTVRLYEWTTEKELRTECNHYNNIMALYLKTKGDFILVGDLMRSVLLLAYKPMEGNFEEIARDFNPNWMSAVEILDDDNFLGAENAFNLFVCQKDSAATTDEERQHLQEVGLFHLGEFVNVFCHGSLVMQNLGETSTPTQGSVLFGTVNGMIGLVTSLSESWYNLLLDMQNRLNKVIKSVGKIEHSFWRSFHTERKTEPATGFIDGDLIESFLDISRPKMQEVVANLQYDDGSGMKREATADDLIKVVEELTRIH

## Cn1c(NC2CCC(=O)NC2=O)nc2ccccc21 (stereo unspecified)
  Kd: > 100 µM
